The test deals with 4T1.2-Luc TNBC tumors. In words: 4T1.2-Luc orthotopic TNBC mouse model, unilateral tumor: tumor volume, tumor weight and body weight. The class given is in vivo, female BALB/c mice. As to conditions: trehalose IP. The text has this:
The model was created by orthotopically injecting 4T1.2-Luc cells in the 4th mammary fat pad of Balb/c mice, with 1×10^5 cells per mouse. The cell line was developed by Dr. Cheryl Jorcyk and it expresses luciferase gene which serves as a luminescent indicator of gene expression or tumorigenesis, making the tumor cell traceable in vivo. Treatment started after the formation of palpable tumors and was detected by in vivo BLI (IVIS, Perkin Elmer) followed by randomization of the animals per group. For evaluating the effect of the peptides on this model, we carried out two separate studies. The first pilot study involved a set of 4 mice per group with bilateral mammary tumors, which received six IP administration of PBS, 9S1R-NulloPT drug at 50 mg/kg, 100 mg/Kg body weight or Trehalose, over a period of 2 weeks. The present study includes a set of 7–9 mice per group with unilateral tumors including the same groups as previous, but received a total of eight injections per mouse over a period of 2 weeks. […]
Mice were anesthetized by isoflurane followed by measurement of the tumor length and width using a manual Vernier caliper. This was performed before every drug administration and the tumor volume was calculated using the formula (length × width^2)/2. Body weights were also measured before every dose of the drug.

The values that follow come from PMC10350184, “Nullomer peptide increases immune cell infiltration and reduces tumor metabolism in triple negative breast cancer mouse model” (Research Square, 2023).

The structures appear in SMILES notation.

As to `OC[C@H]1O[C@H](O[C@H]2O[C@H](CO)[C@@H](O)[C@H](O)[C@H]2O)[C@H](O)[C@@H](O)[C@@H]1O` [Trehalose], the “post mortem tumor size, trehalose only group” value was “no significant change”.
